Paper PMC5882934, “Acute metabolic actions of the major polyphenols in chamomile: an in vitro mechanistic study on their potential to attenuate postprandial hyperglycaemia” (Scientific Reports, 2018)
≈ marks a conversion by molar mass, not a printed value. Read-outs that look alike come from different tables or passages of the source. Blank lines part the entries; values can stand above or below the molecule they belong to.

What was measured:
maltase-glucoamylase = molecular target: maltase-glucoamylase; design: method as in PMID 18681440; conditions: cited from earlier work
sucrase-isomaltase = molecular target: sucrase-isomaltase; design: method as in PMID 18681440; conditions: cited from earlier work
human α-amylase [1] = molecular target: T1, human α-amylase (Homo sapiens, UniProt P0DUB6); test: human α-amylase inhibition assay; format: biochemical; conditions: for maximum inhibition of human α-amylase: individual (poly)phenol, maximum value of dose response, p < 0.05; for Ki: Dixon plot, intercept = -Ki
T1 sequence (P0DUB6 16-511): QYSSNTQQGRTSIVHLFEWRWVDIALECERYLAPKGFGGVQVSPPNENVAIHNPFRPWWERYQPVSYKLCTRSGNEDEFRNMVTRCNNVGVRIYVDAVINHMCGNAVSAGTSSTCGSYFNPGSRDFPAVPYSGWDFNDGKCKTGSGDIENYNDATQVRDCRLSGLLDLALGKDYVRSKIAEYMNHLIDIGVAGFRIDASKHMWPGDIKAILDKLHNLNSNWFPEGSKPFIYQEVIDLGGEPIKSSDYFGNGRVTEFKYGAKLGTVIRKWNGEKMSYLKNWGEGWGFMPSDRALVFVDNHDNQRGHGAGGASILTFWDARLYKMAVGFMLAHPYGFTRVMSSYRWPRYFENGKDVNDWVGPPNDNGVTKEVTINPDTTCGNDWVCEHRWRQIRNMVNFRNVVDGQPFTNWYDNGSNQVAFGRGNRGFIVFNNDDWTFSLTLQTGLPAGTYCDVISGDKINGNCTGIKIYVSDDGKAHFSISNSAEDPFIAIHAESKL
Experimental: The human α-amylase and rat α-glucosidase inhibition assays were performed under optimised conditions as previously reported[3],[18],[52]. The ChE stock solution was dissolved in DMSO while the individual (poly)phenols were prepared in a water-EtOH solution (50:50, v/v).

Caco-2/TC7 cells [2] = test: D-[U-14C]-glucose transport across Caco-2/TC7 cell monolayers in the presence of Na+; format: cell-based; conditions: for effect on D-[U-14C]-glucose transport: data not shown
Text: (§1) Caco-2/TC7 cells transported 0.08 mmol of D-[U-^14C]-glucose from the apical to the basolateral compartment across the cell monolayers in the presence of Na^+, where the sugar transporter Na^+/glucose co-transporter 1 (SGLT1) is active, in addition to the facilitated transporters GLUT2 and GLUT5 (Fig. 6A-1). D-[U-^14C]-sucrose must first be hydrolysed by brush border sucrase and the resulting products, fructose and glucose, are transported into and across the cells.
(§2) Caco-2/TC7 cells were cultured and transport experiments performed as fully described before.

Caco-2/TC7 cells [3] = test: D-[U-14C]-sucrose transport across Caco-2/TC7 cell monolayers; format: cell-based; conditions: data not shown
Text: as §1, §2

Caco-2/TC7 cells [4] = test: D-[U-14C]-fructose transport across Caco-2/TC7 cell monolayers; format: cell-based; conditions: data not shown
Text: as §1, §2

[5] = enzymatic hydrolysis by digestive hydrolytic enzymes (hesperidinase, acetone rat intestinal extract); format: in vitro ADME
Experimental: Supplementary S3. Enzymatic hydrolysis of Kaempferol 3-O-glucoside (positive control) and (E)-MCAG. (A) Kaempferol 3-O-glucoside standard (300 µM). (B) Kaempferol standard (100 uM). (C) Kaempferol 3-O-glucoside hydrolysed with hesperidinase. (D) Kaempferol 3-O-glucoside hydrolysed with acetone rat intestinal extract. (E) Kaempferol 3-O-glucoside hydrolysed with pancreatin. (F) (E)-MCAG (500 µM) hydrolysed with hesperidinase. (G) (E)-MCAG (500 µM) hydrolysed hydrolysed with acetone rat intestinal extract. The enzymatic hydrolysis were conducted with 50 mg/mL of the respective enzyme for 3 h at 37 °C.

GLUT2 = molecular target: T2, GLUT2 (Homo sapiens, UniProt P11168); test: D-[U-14C]-glucose transport across Caco-2/TC7 monolayers under Na+-free conditions (only GLUT2 active); format: cell-based; conditions: for apparent increase in inhibitory activity under Na+-free conditions: versus Na+ present
T2 construct: endogenous in cells; host or cells: Caco-2/TC7
T2 sequence (P11168 1-524): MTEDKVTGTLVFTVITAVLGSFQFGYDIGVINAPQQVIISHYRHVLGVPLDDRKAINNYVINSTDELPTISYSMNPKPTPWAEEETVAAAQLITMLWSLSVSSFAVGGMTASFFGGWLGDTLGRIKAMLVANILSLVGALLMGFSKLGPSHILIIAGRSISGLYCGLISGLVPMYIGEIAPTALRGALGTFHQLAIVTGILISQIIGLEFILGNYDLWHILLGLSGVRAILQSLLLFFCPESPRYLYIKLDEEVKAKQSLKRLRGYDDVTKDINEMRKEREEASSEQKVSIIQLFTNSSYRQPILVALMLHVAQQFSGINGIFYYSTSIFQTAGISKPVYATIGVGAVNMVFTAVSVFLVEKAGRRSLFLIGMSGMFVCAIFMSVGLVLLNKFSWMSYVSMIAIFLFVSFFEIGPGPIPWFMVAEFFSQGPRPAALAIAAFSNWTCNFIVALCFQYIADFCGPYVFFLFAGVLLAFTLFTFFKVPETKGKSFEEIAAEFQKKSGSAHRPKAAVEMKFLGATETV
Text: To dissect the mechanism of inhibition of glucose transport, we conducted D-[U-^14C]-glucose transport experiments under Na^+-free conditions where only GLUT2, and not SGLT1, is active. […] When tested in combination under Na^+-free conditions, apigenin 7-O-glucoside and apigenin (Fig. 6C-3) were responsible for ~80% of the inhibitory activity observed by the whole ChE (p < 0.05) (Fig. 6C-4).
Since the main inhibition we found was on GLUT2, we investigated the binding affinities of apigenin and apigenin 7-O-glucoside. […] This was also confirmed by functional assays where the rate of D-[U-^14C]-glucose transport under Na^+-free conditions was the same from apical to basolateral compartments and vice versa (Fig. 7B). Inhibition constants for the exofacial glucose transporter inhibitor 4,6-O-ethylidene glucose and the endofacial glucose transporter inhibitor cytochalasin B on basolateral to apical D-[U-^14C]-glucose transport were compared to those for apigenin and apigenin 7-O-glucoside (Fig. 7C–E). […] This comparison is made assuming that the position of GLUT2 is the same when facing the apical and the intracellular space, which seems to hold based on the rate of D-[U-^14C]-glucose transport across the monolayers in both directions.
as §2

Caco-2/TC7 cells [6] = test: conversion of apigenin 7-O-glucoside to apigenin by differentiated Caco-2/TC7 cells; format: in vitro ADME; conditions: 150 µM, 25 and 60 min
Experimental: Glycosylated (poly)phenols can be hydrolysed by luminal β-glucosidase enzymes, such as lactase phlorizin hydrolase[19],[20], present in the brush border of the enterocytes, resulting in the release of the aglycone. Therefore, we explored the possibility whether the inhibition observed by apigenin-7-O-glucoside was due to the presence of apigenin after enzymic hydrolysis. Caco-2/TC7 cells were incubated with 150 µM apigenin 7-O-glucoside for 25 and 60 min. In vitro conversion of apigenin 7-O-glucoside to apigenin in Caco2/TC7 cells was negligible (Supplementary S5) confirming that apigenin 7-O-glucoside can interact directly with GLUT2 transporter protein.
Cells were seeded at 2.4 × 10^5 cells/well on 6-well plates (Corning, Appleton Woods, UK) and cultured for 21–23 d at 37 °C as described above. Cells were exposed to 150 μM of apigenin 7-O-glucoside for 25 and 60 min. After the treatment the medium was collected and analysed by HPLC as detailed above.

yeast α-glucosidase = conditions: cited from earlier work
[7] = system: rat intestinal α-glucosidase; design: method as in PMID 28422509; conditions: p-nitrophenyl-glucopyranoside substrate; cited from earlier work
human α-amylase [8] = molecular target: T1, human α-amylase; design: method as in doi:10.1016/j.jff.2015.10.003; conditions: strong (poly)phenol inhibitors, arbitrarily defined; cited from earlier work
[9] = design: method as in PMID 12086760, PMID 12876091; conditions: population with impaired glucose tolerance; cited from earlier work
[10] = solubility limit in enzyme assay; format: physicochemical
GLUT1 [11] = system: GLUT1; design: method as in PMID 26238658; conditions: cited from earlier work
GLUT1 [12] = system: GLUT1; design: method as in PMID 24932809; conditions: cited from earlier work

SMILES: O=c1ccc2cc(O)c(O)cc2o1 [esculetin]
- IC50 (maltase-glucoamylase): 534 µM
- IC50 (sucrase-isomaltase): 72 µM

- maximum inhibition of human α-amylase (human α-amylase [1]): ~ 20%
- substrate for rat intestinal enzymes [5]: not a substrate
- resistance to digestive hydrolytic enzymes ([5]; 500 µM, 50 mg/mL enzyme, 3 h at 37 °C): resistant
SMILES: COc1ccc(/C=C/C(=O)O)c(O[C@@H]2O[C@H](CO)[C@@H](O)[C@H](O)[C@H]2O)c1 [(E)-MCAG, (E)−2-β-D-Glucopyranosyloxy-4-methoxycinnamic acid]
- effect on D-[U-14C]-glucose transport (Caco-2/TC7 cells [2]): no effect
- effect on D-[U-14C]-sucrose transport (Caco-2/TC7 cells [3]): no effect
- effect on D-[U-14C]-fructose transport (Caco-2/TC7 cells [4]): no effect

- fold lower inhibition of transport basolateral to apical versus apical to basolateral (GLUT2; Na+-free): 3 fold
- IC50 (GLUT2; Na+-free, apical to basolateral, read-out: a → b IC50): 15000 µM
SMILES: CC1OC[C@H]2O[C@H](O)[C@H](O)[C@@H](O)[C@@H]2O1 (some centres unmarked) [4,6-ethylidine glucose, 4,6-O-ethylidene glucose, reference compound]

- Ki (human α-amylase [1]): 17 ± 4 µM
- fold lower inhibition of human α-amylase than apigenin (human α-amylase [1]; in vitro results): ~ 10 fold
- fold lower inhibition of transport basolateral to apical versus apical to basolateral (GLUT2; Na+-free): 3 fold
- apparent increase in inhibitory activity under Na+-free conditions (GLUT2): ~ 50%
- in vitro conversion to apigenin (Caco-2/TC7 cells [6]): negligible
SMILES: O=c1cc(-c2ccc(O)cc2)oc2cc(O[C@@H]3O[C@H](CO)[C@@H](O)[C@H](O)[C@H]3O)cc(O)c12 [apigenin 7-O-glucoside, apigenin-7-O-glucoside]
- IC50 yeast α-glucosidase (yeast α-glucosidase): 29.7 µg/mL (≈ 68.7 µM)
- inhibition of rat intestinal α-glucosidase activity [7]: inhibited

- maximum inhibition of human α-amylase (human α-amylase [1]): ~ 25%
SMILES: COc1ccc(/C=C\C(=O)O)c(OC2O[C@H](CO)[C@@H](O)[C@H](O)[C@H]2O)c1 (stereo partly drawn) [(Z)-MCAG, (Z)-2-D-Glucopyranosyloxy-4-methoxycinnamic acid]
- effect on D-[U-14C]-glucose transport (Caco-2/TC7 cells [2]): no effect
- effect on D-[U-14C]-sucrose transport (Caco-2/TC7 cells [3]): no effect
- effect on D-[U-14C]-fructose transport (Caco-2/TC7 cells [4]): no effect

SMILES: O=c1cc(-c2ccc(O)c(O)c2)oc2cc(O)cc(O)c12 [luteolin]
- IC50 (human α-amylase [8]): < 100 µM

SMILES: O=C(O[C@@H]1Cc2c(O)cc(O)cc2O[C@@H]1c1cc(O)c(O)c(O)c1)c1cc(O)c(O)c(O)c1 [EGCG]
- IC50 (human α-amylase [8]): < 100 µM

SMILES: C[C@H]1O[C@H](O[C@H]2[C@H](O)[C@@H](O)[C@@H](O[C@H]3[C@H](O)[C@@H](O)C(O)O[C@@H]3CO)O[C@@H]2CO)[C@H](O)[C@@H](O)[C@@H]1N[C@H]1C=C(CO)[C@@H](O)[C@H](O)[C@H]1O (some centres unmarked) [acarbose]
- reduction of the risk of cardiovascular events [9]: 49%
- reduction of the risk of type 2 diabetes [9]: 25%

- fold increase in inhibitory activity on human α-amylase versus apigenin 7-O-glucoside (human α-amylase [1]): ~ 10 fold
- Ki (human α-amylase [1]): 146 ± 39 µM
- fold lower inhibition of transport basolateral to apical versus apical to basolateral (GLUT2; Na+-free): 3 fold
- apparent increase in inhibitory activity under Na+-free conditions (GLUT2): ~ 50%
SMILES: O=c1cc(-c2ccc(O)cc2)oc2cc(O)cc(O)c12 [apigenin]
- fold higher effect than apigenin 7-O-glucoside at equivalent concentrations (Caco-2/TC7 cells [2]; D-[U-14C]-glucose and D-[U-14C]-sucrose transport, apigenin 50 µM): 3 fold
- solubility [10]: limited solubility prohibited testing at concentrations >50 µM
- IC50 (yeast α-glucosidase): 22 µM
- IC50 yeast α-glucosidase (yeast α-glucosidase): 25.5 µg/mL (≈ 94.4 µM)
- inhibition of yeast α-glucosidase (yeast α-glucosidase; p-nitrophenyl-glucopyranoside substrate): did not inhibit
- GLUT1 expression (GLUT1 [11]): lowered
- GLUT1 expression (GLUT1 [12]): lowered

SMILES: C=C1[C@@H](C)[C@H]2[C@H](Cc3ccccc3)NC(=O)[C@]23OC(=O)/C=C/[C@H](O)CCC[C@@H](C)C/C=C/[C@H]3[C@@H]1O [Cytochalasin B, cytochalasin B, reference compound]
- IC50 (GLUT2; a → b IC50, Na+-free, apical to basolateral): 2.3 µM
- IC50 (GLUT2; b → a IC50, Na+-free, basolateral to apical): 7.6 µM

SMILES: O=c1c(O)c(-c2ccc(O)c(O)c2)oc2cc(O)cc(O)c12 [quercetin]
- IC50 (human α-amylase [8]): < 100 µM
- IC50 (maltase-glucoamylase): 216 µM
- IC50 (sucrase-isomaltase): 71 µM
